Experimental findings from patent publication US20170340693A1, “DISLODGEMENT AND RELEASE OF HSC USING ALPHA 9 INTEGRIN ANTAGONIST AND CXCR4 ANTAGONIST” (COMMONWEALTH SCIENTIFIC AND INDUSTRIAL RESEARCH ORGANISATION, priority 2014, published 2017) are described below.

Assay [1] relates to murine BM progenitors (LSK) and HSC (LSKSLAM). The assay can be described thus: In vitro R-BC154 (IXb) binding to murine central and endosteal BM cells. It is filed as cell-based, mice. The source says: Populations of endosteal and central murine bone marrow cells were isolated as previously described in J. Grassinger, et al Cytokine, 2012, 58, 218-225 and D. N. Haylock et al Stem Cells, 2007, 25, 1062-1069. Briefly, one femur, tibia and iliac bone were excised and cleaned of muscle. After removing the epi- and metaphyseal regions, bones were flushed with PBS-2% FBS to obtain central bone marrow cells. Flushed long bones and epi- and metaphyseal fragments were pooled and crushed using a mortar and pestle. Bone fragments were digested with Collagenase I (3 mg/ml) and Dispase II (4 mg/ml) at 37° C. in an orbital shaker at 750 rpm. After 5 min, bone fragments were washed once with PBS and once with PBS 2% FBS to collect the endosteal bone marrow cells. Peripheral blood was collected by retro-orbital puncture and red blood cells were lysed using NH4Cl lysis buffer for 5 min at room temperature. Isolated cell populations were washed with PBS 2% FBS and then stained for flow cytometry as described in Antibody Cocktails above.
For in vitro labelling experiments, 5×10^6 BM cells from C57 mice, conditional α4^−/−/α9^−/− mice and humanised NODSCIDIL2Rγ^−/− mice and human cord blood MNCs were treated with R-BC154 (IXb) (up to 300 nM) in PBS (0.5% BSA) or TBS (0.5% BSA) containing either 1 mM CaCl2/MgCl2 (activating) or 10 mM EDTA (deactivating) at 40×10^6 cells/ml for 20 mins at 4° C. Cells were washed with cold PBS (2% FBS) and then immunolabelled as described in “Antibody Cocktails” prior to flow cytometric analysis. For in vivo experiments, C57BL/6 mice, α4^−/−/α9^−/− vav-cre mice and humanised NODSCIDIL2Rγ^−/− mice received either intravenous or subcutaneous injections of R-BC154 (IXb) (5-10 mg/kg) at 100 ul/10 gm mouse weight and analysed as described above.
To determine whether integrin activation is required for binding to both central and endosteal BM progenitors (Lin^−Sca-1^+ckit^+ cells; LSK) and HSC (LSKCD150^+CD48^− cells; LSKSLAM) (FIG. 3a), R-BC154 (IXb) binding was assessed in the presence of 1 mM Ca^2+/Mg^2+ (FIG. 3b).

The subject of assay [2] is bone marrow progenitor cells (LSK) and HSC (LSKSLAM). The assay can be described thus: In vivo bone marrow binding assay. The following applies: 10 mg kg−1 intravenously, versus un-injected mice. The method, then: R-BC154 (IXb) in PBS (10 mg kg-1) was injected intravenously into C57 mice. After 5 min, bone marrow cells were isolated as previously described in D. N. Haylock et at Stem Cells, 2007, 25, 1062-1069 and J. Grassinger, et al Cytokine, 2012, 58, 218-225. Briefly, one femur, tibia and iliac crest were excised and cleaned of muscle. After removing the epi- and metaphyseal regions, bones were flushed with PBS-2% FBS to obtain whole bone marrow, which were washed with PBS-2% FBS and then immunolabelled for flow cytometry. For analysis of R-BC154 (IXb) binding, the following antibody combinations were chosen to minimise emission spectra overlap. […]
To assess whether R-BC154 (IXb) and this class of N-phenylsulfonyl proline-based peptidomimetics could bind directly to HSC, R-BC154 (IXb) (10 mg kg^−1) was injected intravenously into mice and analysed for R-BC154 (IXb) labelling of phenotypically defined bone marrow progenitor cells (LSK cell; lineage-Sca-1+c-Kit+) and HSC (LSKSLAM cell; LSKCD48-CD150+) using multi-colour flow cytometry. […] Furthermore, in vivo R-BC154 (IXb) binding was also confirmed by fluorescence microscopy on purified populations of progenitor cells (Lineage-Sca-1+c-Kit+).

The subject of assay [3] is α4β1 or α9β1 LN18 cells. The assay is described as follows: Association and dissociation (off-rate) kinetics in vitro. It is filed as binding, human. The method, then: Eppendorf vials containing α4β1 or α9β1 LN18 cells (0.5×10^6 cells) were treated with 50 nM of R-BC154 (IXb) (100 μl in TBS-2% FBS containing either 1 mM CaCl2—MgCl2 or 1 mM MnCl2 at 37° C. until for 30 min, washed once with the relevant binding buffer and dry pelleted. The cells were treated with 500 nM of an unlabelled competing inhibitor (100 μl, in TBS-2% FBS containing either 1 mM CaCl2—MgCl2 or 1 mM MnCl2) at 37° C. for the times indicated (0, 2.5, 5, 15, 30, 45, 60 min). The cells were diluted with cold TBS-2% FBS (containing the relevant cations), pelleted by centrifugation, washed once and resuspended (˜200 μl) in binding buffer for flow cytometric analysis. Mean channel fluorescence was plotted against time and the data was fitted to either a one-phase or two-phase exponential decay function using GraphPad Prism 6. The off-rate, koff was extrapolated from the curves.
Eppendorf vials containing α4β1 or α9β1 LN18 cells (0.5×10^6 cells) in 50 μl TBS-2% FBS containing either 1 mM CaCl2—MgCl2 or 1 mM MnCl2 were pre-activated in a heating block for 20 min at 37° C. […] Mean channel fluorescence was plotted against time and the data was fitted to either a one-phase or two phase association function using GraphPad Prism 6. The observed on-rate, kobs was extrapolated from the curves and kon was calculated using […]

On to `CCN(CC)c1ccc2c(-c3ccc(S(=O)(=O)NCc4cn(C5C[C@@H](C(=O)N[C@@H](Cc6ccc(OC(=O)N7CCCC7)cc6)C(=O)O)N(S(=O)(=O)c6ccccc6)C5)nn4)cc3S(=O)(=O)[O-])c3ccc(=[N+](CC)CC)cc-3oc2c1` (some centres unmarked) [R-BC154 (IXb)], for which, in assay [1] (1 mM Ca2+/Mg2+), the “binding to central versus endosteal LSK and LSKSLAM” value is “greater binding to central LSK and LSKSLAM was observed relative to their endosteal counterparts”. Moreover, the “binding to α4−/−/α9−/− LSK and LSKSLAM cells” value in assay [1] (BM of α4flox/flox α9flox/flox vav-cre mice) is “essentially absent”. Also, the “binding to HSC and progenitors on co-treatment with EDTA” value in assay [1] (EDTA (deactivating)) is listed as “completely abolished activity”. Further, the “binding to endosteal and central LSK” value in assay [1] (absence of both activating cations and EDTA) is reported as “binding to endosteal LSK cells was still evident but not to central LSK”. Also, in assay [1] (exogenous activation), the “binding to lineage committed lymphoid and myeloid cells relative to LSKSLAM and LSK” value was “significantly lower relative to LSKSLAM”. In assay [2], the “labelling of BM progenitor cells and HSC after injection” value was “Increased cell-associated fluorescence”. Besides, in assay [3], the “off-rates for α9β1 compared to α4β1” value is on record as “significantly reduced off-rates”. The “binding affinities relative to BOP” value in assay [3] (association and dissociation kinetics studies in vitro) was “lower binding affinities”.
